Test results: the METLIN SMRT retention time set (Domingo-Almenara et al. 2019)

test: gradient 5% acetonitrile 3 min, to 50% in 2 min, to 85% in 15 min, held 3 min, 100 µL/min; conditions: column: Zorbax Extend-C18 2.1 x 50 mm; eluents: water / acetonitrile, 0.1% formic acid
Method in brief: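 Values are retention times taken from adduct peaks that software picked and an analyst inspected. The pure standards were run as mixtures of ~100 molecules on HPLC linked to a quadrupole time-of-flight mass spectrometer, in positive and negative ionization mode. A Zorbax Extend-C18 column (2.1 × 50 mm, 1.8 μm) was used at 100 μL/min with water and acetonitrile, each including 0.1% formic acid.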

| SMILES | RP-LC retention time [s] |
| --- | --- |
| COc1ccc2c3c([nH]c2c1)[C@H](C=C(C)C)N1C(=O)[C@@H]2CCCN2C(=O)[C@@H]1C3 | 871 |
| CCN1C(=O)c2cccnc2Sc2cc(NC(=O)c3ccc(F)cc3Cl)ccc21 | 852 |
| COCc1cn(C2CN(C(=O)C3(c4ccccc4)CC3)C2)nn1 | 688 |
| CC(=O)c1cccc(NC(=O)CCc2c(C)nn(-c3cc(N(C)C)ncn3)c2C)c1 | 731 |
| O=C(NCC1(c2cccs2)CCOCC1)c1ccsc1 | 706 |
| CCc1nc2cc(-c3noc(COc4ccccc4C)n3)ccc2o1 | 1270 |
| O=C(COc1ccc2ccccc2c1)Nc1nc(-c2ccccc2)cs1 | 1180 |
| C[C@@H](C(=O)NCC1(CC(=O)O)CCCCC1)n1nnc2ccccc2c1=O | 748 |
| COC(=O)C1=CN(c2ccc(N(C)C)cc2)c2ccccc2S1(=O)=O | 883 |
| N#Cc1cc2c(nc1SCC(=O)N1CCOCC1)CCCC2 | 798 |
| COc1cc(=O)n2c(c1C(=O)Nc1ccc3c(c1)OCCO3)CCCC2 | 647 |
| O=C(NCCc1c[nH]c2ccccc12)c1nc[nH]c1C(=O)NCc1ccccn1 | 641 |
| COc1cccc(-c2csc(Nc3cc(C)ccn3)n2)c1 | 810 |
| COc1cc(NC(=O)C2CC(=O)N(c3ccc4c(c3)CCN4C(C)=O)C2)cc(OC)c1 (centres undefined) | 694 |
| O=C(NCCn1ncccc1=O)NCc1ccccc1 | 578 |
| COc1cccc(Cn2c(=O)c3sccc3n(Cc3nc(-c4ccccc4)no3)c2=O)c1 | 1000 |
| CS(=O)(=O)N1CCCCC1C(=O)Nc1nnc(-c2ccco2)o1 (centres undefined) | 641 |
| CCCCOC(=O)c1ccc(Nc2c(C(=O)N(CC)CC)cnc3nc(C)ccc23)cc1 | 720 |
| O=C(NCc1nc(-c2ccc(NS(=O)(=O)c3ccc(Cl)cc3)cc2)no1)c1cccs1 | 909 |
| CCN(CC)CCCNC(=O)C1CCCN(c2ncnc3c2nc2n3CCCCC2)C1 (centres undefined) | 556 |
| COc1ccc(-c2nnc(COc3ccc(NC(=O)c4cccnc4)cc3)o2)cc1 | 711 |
| O=C1CCN(C(=O)c2ccoc2)CCCCCCN1 | 617 |
| CCCc1c(C(=O)NCC2CCCO2)nnn1-c1ccc(OC)cc1 (centres undefined) | 783 |
| CC1CCCCN1CCCN1C(=O)c2ccccc2C1C(=O)NC1CCCCC1 (centres undefined) | 642 |

| SMILES | RP-LC retention time [s] |
| --- | --- |
| CCS(=O)(=O)NCc1ccc2c(c1)CCN2C(=O)CC(C)C | 794 |
| Nc1ncnc(Nc2cccc3c2CCCC3)c1[N+](=O)[O-] | 838 |
| O=C(COc1ccc(F)cc1)NCc1ccc2c(c1)OCCCO2 | 853 |
| COc1ccc(-c2nc3ccc(Br)cn3c2Nc2ccc(C)cc2)cc1 | 847 |
| COc1ccc(C(=O)NCCc2ccc(S(N)(=O)=O)cc2)nn1 | 604 |
| CCCS(=O)(=O)c1nc2ccc(NS(=O)(=O)c3ccc(C)cc3C)cc2s1 | 999 |
| CN(C)c1ccc(-c2noc(CCC(=O)N3CCC4(CC3)OCCO4)n2)cc1 | 789 |
| CCOc1ccc(CNC(=O)C2CCN(Cc3cn(CC)c4ccc(OC)cc34)CC2)cc1 | 723 |
| COc1ccc(CNC(=O)NCCc2nc3cccnc3n2Cc2ccccc2)cc1 | 710 |
| CN(CCNC(=O)c1c2c(cn(-c3ccccc3)c1=O)C(=O)CC(C)(C)C2)C1CCCCC1 | 720 |
| Cc1nn(C)c(C)c1CCNC(=O)Nc1ccc(Br)cc1 | 674 |
| Cc1cccc(C)c1OCC(N)C(C)C (centres undefined) | 728 |
| Cc1ccc2c(c1)N(S(C)(=O)=O)CCC(C(=O)Nc1ccc(Br)c(C)c1)O2 (centres undefined) | 1090 |
| Cc1cccc(-c2nnc(-c3nc(NCCN4CCOCC4)c4ccccc4n3)o2)c1 | 662 |
| CCNC(=O)c1n[nH]c2c1CC(C(C)(C)C)CC2 (centres undefined) | 840 |
| CN1C2CCC1CC(OC(c1ccccc1)c1ccc(Cl)cc1)C2 (centres undefined) | 862 |
| COc1cc(C(=O)NCC(c2ccc3c(c2)OCO3)N2CCN(C)CC2)cc(OC)c1OC (centres undefined) | 610 |
| Cc1ccc(C(=O)Nc2ccc3c(c2)CCC(=O)N3)s1 | 680 |
| O=C1COc2ccc(Cl)cc2N1Cc1nc(-c2ccc3c(c2)OCO3)no1 | 1040 |
| Brc1cccc(-c2nc3ncccn3c2NCc2ccccc2)c1 | 860 |
| CCc1nc2cc(-c3noc(-c4ccccc4Br)n3)ccc2o1 | 1260 |
| COc1ccc(C(=O)NC(CC(C)C)C(=O)Nc2nc3ccccc3[nH]2)cc1OC (centres undefined) | 705 |
| CN(CCC#N)c1ccc(NC(=O)c2ccc(Br)cc2)cc1C(=O)O | 740 |
| Cn1c(C(=O)NCCc2c[nH]c3ccccc23)cc2c(-c3cccs3)nn(-c3ccccc3)c21 | 969 |

Other lines, results leading:

| RP-LC retention time [s] | SMILES |
| --- | --- |
| 681 | CCOc1ccc(NC(=O)N2CCN(Cc3nc4ccccc4o3)CC2)cc1 |
| 789 | Cc1oc(C2CCN(S(=O)(=O)c3ccc(F)cc3)CC2)nc1C(=O)N1CCOCC1 |
| 1090 | COc1cc(Cl)ccc1C(=O)Nc1cc(S(=O)(=O)N2CCSCC2)sc1C |
| 818 | COc1ccc(OCC(=O)N2CCC(C(=O)NCCc3csc(-c4ccccc4)n3)CC2)cc1 |
| 722 | O=C(NCCn1nnc2cc(C(=O)N3CCCC3)ccc21)Nc1cccc(Br)c1 |
| 618 | CNC(=O)C1CCCN(c2nc3ncn(CC(=O)NCc4ccc5c(c4)OCO5)c(=O)c3s2)C1 (centres undefined) |
| 839 | Cc1cc(Cl)ccc1NC(=O)C1CCN(S(=O)(=O)c2ccc3c(c2)NC(=O)CO3)CC1 |
| 741 | CC(C)c1c(C2CCN(C(=O)NCc3ccccc3)CC2)noc1N |
| 741 | Cc1oc(-c2[nH]ncc2C(=O)N2CCCC2)cc1S(=O)(=O)Nc1cccc(Cl)c1 |
| 602 | Cc1ccc2[nH]cc(CCN3CC(C(=O)NCCN4CCOCC4)CC3=O)c2c1 (centres undefined) |
| 634 | CCn1ccc(C(=O)N2CCC(c3noc(-c4cnccn4)n3)C2)n1 (centres undefined) |
| 614 | O=C(NCCN1CCCCC1)C1CCN(c2cnn(Cc3ccccc3)c(=O)c2)CC1 |
| 1000 | O=C(CN1C(=O)COc2ccccc21)N1CCN(c2ccc(-c3noc(C4CCC4)n3)cc2)CC1 |
| 698 | Cc1nnc(N2CCCC(C(=O)NCc3ccc4c(c3)OCO4)C2)c2nn(-c3ccccc3)c(C)c12 (centres undefined) |
| 738 | COCc1nncn1C1CCN(S(=O)(=O)c2cccc(Cl)c2)CC1 |
| 818 | CC(NC(=O)c1cc2n(n1)CCCC2)c1ccc(F)cc1 (centres undefined) |
| 890 | O=C(CN1C(=O)CCCc2cc(S(=O)(=O)N3CCCC3)ccc21)Nc1cccc(Cl)c1 |
| 680 | CCC1CN2C=NC(N3CCN(S(=O)(=O)Cc4cccc(F)c4)CC3)=CC2=N1 (centres undefined) |
| 681 | CCc1nc(-c2csc(S(=O)(=O)N3CCCC(C(=O)NCc4ccccn4)C3)c2)no1 (centres undefined) |
| 1320 | Cc1c(-c2ccnc(N3CCC(C)CC3)n2)cnc2nc(-c3ccccc3)nn12 |
| 636 | O=C(c1ccc(F)cc1)N1CCN(c2cnn3c(C4CC4)nnc3c2)CC1 |

| RP-LC retention time [s] | SMILES |
| --- | --- |
| 1010 | Cc1cccc(-c2cc3n(n2)CCCN(C(=O)COc2ccc(Cl)cc2)C3)c1 |
| 656 | COc1ccc(CNC(=O)C2CCN(c3cc(N4CCSCC4)ncn3)CC2)cc1 |
| 847 | Cc1ccc(CNS(=O)(=O)c2cc3c(s2)CCN(C(=O)C2CC2)C3)cc1 |
| 658 | CC(=O)N1CCCc2cc(S(=O)(=O)N3CCC(C(=O)NCC4CCCO4)CC3)ccc21 (centres undefined) |
| 675 | CC(C)C(=O)N1CCc2c(c(C(=O)N3CCC(C(=O)NCc4ccc(F)cc4)CC3)nn2C)C1 |
| 646 | NC(=O)C1CCN(C(=O)c2cn(-c3cccc(Cl)c3)nn2)CC1 |
| 525 | Nc1cccc(N2CCn3c(nc4ccccc43)C2)c1 |
| 659 | Cc1nc2cccnc2n1C1CCN(C(=O)Nc2ccc(Cl)cc2)CC1 |
| 663 | Cc1ccc(-c2ccc(N3CCCC(C(=O)NCC4CCCO4)C3)nn2)cc1C (centres undefined) |
| 590 | Cc1nnc(N2CCCC(C(=O)NCCN3CCOCC3)C2)c2nn(-c3ccc(Cl)cc3)c(C)c12 (centres undefined) |
| 1010 | CCn1c(=O)c(N2CCN(C(=O)Nc3ccccc3Br)CC2)nc2ccccc21 |
| 658 | CCOC(=O)c1ccc2nc(C(F)(F)F)nc(NCCCN3CCOCC3)c2c1 |
| 611 | O=C(CCc1nnc2c3cc(-c4ccc(F)cc4)nn3ccn12)N1CCN(c2ccccn2)CC1 |
| 1000 | CCC(=O)N1CCc2sc(S(=O)(=O)N3CCN(c4ccc(C)cc4)CC3)cc2C1 |
| 751 | CCc1cccc(NC(=O)N2CCC(CC(=O)N3CCCCC3)CC2)c1 |
| 784 | O=C1COc2ccc(S(=O)(=O)N3CCCC3C(=O)NCc3ccccc3Cl)cc2N1 (centres undefined) |
| 1160 | O=C(Nc1ccc(F)cc1)C1CCCN(S(=O)(=O)c2cc(-c3noc(C4CCC4)n3)cs2)C1 (centres undefined) |
| 567 | C=CCNC(=O)c1nc(C(=O)N2CCN(c3ccccn3)CC2)cs1 |
| 1280 | Cc1ccc(-c2noc(C3CCCN3S(=O)(=O)c3ccc4c(c3)CCC4)n2)cc1 (centres undefined) |
| 835 | CCN(CC)S(=O)(=O)c1ccc2c(c1)N(CC(=O)N1CCCC1)C(=O)C1CCCCN21 (centres undefined) |
